Data: patent US4440904A, “Nonapeptide anti-secretory agents” (American Home Products Corporation, priority 1983, dated 1984)
Bridge positions count the residues as written; N and C are the ends. Square brackets hold non-standard residues; d marks the D form. Peptide text beside a SMILES is read from it.

Tests used:
growth hormone (GH) = experiment: Growth hormone suppression in arginine-stimulated, Nembutal-anesthetized rats (GH by radioimmunoassay); format: in vivo, rat; conditions: for GH: albino male rats, time 15 minutes, arginine stimulation, saline control 90 ± 14, *p <0.01
Description: The product of the preceding example illustrates the activity of the compounds of this invention for growth hormone suppression in the following standard procedure:
Albino male rats are administered Nembutal intraperitoneally at a dose of 50 milligrams per kilogram. Fifteen minutes later a subcutaneous injection of the compound of Example 2 or physiological saline (control) is administered. Ten minutes later 0.5 milliliters of arginine (300 milligrams per milliliter, pH 7.2) is injected into the heart. Five minutes after receipt of the arginine the rats are decapitated and blood is collected into trasylol-EDTA. An appropriate aliquot is assayed for growth hormone (GH) by radioimmunoassay.

total acid output = experiment: Gastric anti-secretory activity in pylorus-ligated rats; format: in vivo, rat; conditions: male Sprague-Dawley rats, pyloric ligation, 2 milligram per kilogram subcutaneous, four-hour test period
Description: Male Charles River rats of Sprague-Dawley strain and 190 to 240 grams body weight are food deprived for 24 hours with water ad libitum until the test. Groups of ten rats each are assigned to either control or drug treatment. Pyloric ligation was performed under ether anesthesia through a midline laparotomy, and either control vehicle (0.25 methylcellulose) or drug in control vehicle was administered subcutaneously. The rats are sacrificed by CO2 asphyxiation four hours after pyloric ligation. The stomachs are removed and the gastric contents emptied into graduated centrifuge tubes. The gastric samples are centrifuged for 20 minutes and those obviously contaminated by food, blood or feces are discarded. The volume of gastric fluid is recorded and the acid concentration of 1.0 milliliter sample aliquots is measured by electrometric titration to pH 7.0 with 0.1 N NaOH. The calculated product of gastric volume (ml/4 hr) and acid concentration (mEq/L) estimates the total acid output (TAO, mEq/4 hr) over the four-hour test period.

Compound	GH (growth hormone (GH); dose 200 μg/kg subcutaneous) [ng/mL]	GH (growth hormone (GH); dose 1,000 μg/kg subcutaneous) [ng/mL]	growth hormone suppression potency compared with somatostatin (growth hormone (GH); rats, subcutaneous)	decrease of total acid output (total acid output) [%]
C[C@@H](O)[C@@H]1NC(=O)[C@H](CCCCN)NC(=O)[C@@H](Cc2c[nH]c3ccccc23)NC(=O)[C@H](Cc2ccccc2)NC(=O)[C@@H](NC(=O)[C@H](Cc2ccc(O)cc2)NC(=O)[C@@H](N)Cc2c[nH]cn2)CSSC[C@@H](C(=O)N[C@@H](Cc2ccccc2)C(=O)O)NC1=O [Example 2, L-Histidyl-L-tyrosyl-L-cysteinyl-L-phenylalanyl-D-tryptophyl-L-lysyl-L-threonyl-L-cysteinyl-L-phenylalanine cyclic (3-8) disulfide] (H-HYCF[dW]KTCF-OH; disulfide 3-8)	31 ± 10	41 ± 8	substantially equipotent with somatostatin	73
C[C@H](N)C(=O)NCC(=O)N[C@H]1CSSC[C@@H](C(=O)O)NC(=O)[C@H](CO)NC(=O)[C@H]([C@@H](C)O)NC(=O)[C@H](Cc2ccccc2)NC(=O)[C@H]([C@@H](C)O)NC(=O)[C@H](CCCCN)NC(=O)[C@H](Cc2c[nH]c3ccccc23)NC(=O)[C@H](Cc2ccccc2)NC(=O)[C@H](Cc2ccccc2)NC(=O)[C@H](CC(N)=O)NC(=O)[C@H](CCCCN)NC1=O [Somatostatin, reference compound]	34 ± 3	–	–	–
